The values that follow are results of earlier work, collected in patent US10307441B2, “Pharmaceutical formulations of nitrite and uses thereof” (Board of Supervisors of Louisiana State University and …, priority 2009, dated 2019).

For orientation: clearance means the volume of plasma or blood freed of the substance per unit of time. As a reminder, the half-life is the time in which the quantity being followed falls by half.

Molecules are shown by their SMILES.

Setting [1] is: assumed mid-range PK constant for simulation.

Consider `O=NO` [NaNO2, Sodium nitrite], for which the oral bioavailability (assumed PK constant for simulation) is 100%. Moreover, under setting [1], the clearance is 60.375 L/h and the half-life was 45 min.
